Structures can show the parent of a compound that is named as a salt.

The subject of this assay is P. Falciparum NF54. As to the kind of experiment: Plasmodium falciparum in vitro assay ([3H]-hypoxanthine incorporation). It counts as cell-based. As to conditions: Plasmodium falciparum, Erythrocyte, P. Falciparum NF54, erythrocytic stages in human red blood cells, 50% human serum. Put shortly:
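Activity against the blood stages of Plasmodium falciparum growing in human red blood cells was measured by how much [3H]-hypoxanthine the parasites took up. Filters were dried, sealed in plastic foil containing 10 mL of scintillation fluid, and read on a Betaplate liquid scintillation counter. IC50 values came from sigmoidal inhibition curves fitted in Microsoft Excel.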
As usually defined, the IC50 is the concentration that inhibits the measured activity by half. In turn, `Cc1cc(Nc2ccc(CN(C(=O)/C=C/c3ccc(C(F)(F)F)cc3)C3CCN(Cc4nccn4C)CC3)cc2)ccn1` [Example 41, (E)-N-[1-(1-Methyl-1H-imidazol-2-ylmethyl)-piperidin-4-yl]-N-[4-(2-methyl-pyridin-4-ylamino)-benzyl]-3-(4-trifluoromethyl-phenyl)-acrylamide] had an IC50 of 207 nM.
The same measure for `O=C(/C=C/c1ccc(C(F)(F)F)cc1)N(Cc1ccc(Nc2ccncc2)cc1)C1CCN(C2CCCC2)CC1` [Example 86, (E)-N-(1-Cyclopentyl-piperidin-4-yl)-N-[4-(pyridin-4-ylamino)-benzyl]-3-(4-trifluoromethyl-phenyl)-acrylamide]: 43 nM.
Next, `Cc1cc(Nc2ccc(CN(C(=O)/C=C/c3ccc(C(F)(F)F)cc3)C3CCN(Cc4c(C)noc4C)CC3)cc2)ccn1` [Example 44, (E)-N-[1-(3,5-Dimethyl-isoxazol-4-ylmethyl)-piperidin-4-yl]-N-[4-(2-methyl-pyridin-4-ylamino)-benzyl]-3-(4-trifluoromethyl-phenyl)-acrylamide]: 64 nM; `CC(C)N1CCC(N(Cc2cncc(Nc3ccncc3F)c2)C(=O)/C=C/c2ccc(C(F)(F)F)cc2)CC1` [Example 138, (E)-N-[5-(3-Fluoro-pyridin-4-ylamino)-pyridin-3-ylmethyl]-N-(1-isopropyl-piperidin-4-yl)-3-(4-trifluoromethyl-phenyl)-acrylamide formate]: 344 nM.
In turn, `CC(C)N1CCC(N(Cc2cccc(Nc3ccncc3F)n2)C(=O)/C=C/c2ccc(C(F)(F)F)cc2)CC1` [Example 131, (E)-N-[6-(3-Fluoro-pyridin-4-ylamino)-pyridin-2-ylmethyl]-N-(1-isopropyl-piperidin-4-yl)-3-(4-trifluoromethyl-phenyl)-acrylamide formate] had an IC50 of 303 nM.
`CC(C)N1CCC(N(Cc2cncc(N(C)c3ccccn3)c2)C(=O)/C=C/c2ccc(C(F)(F)F)cc2)CC1` [Example 140, (E)-N-(1-Isopropyl-piperidin-4-yl)-N-[5-(methyl-pyridin-2-yl-amino)-pyridin-3-ylmethyl]-3-(4-trifluoromethyl-phenyl)-acrylamide formate] showed an IC50 of 354 nM. The IC50 values of the last two compounds are within 1.5-fold of each other.
Compound `Cc1cnccc1Nc1cncc(CN(C(=O)/C=C/c2ccc(C(F)(F)F)cc2)C2CCN(C(C)C)CC2)c1` [Example 137, (E)-N-(1-Isopropyl-piperidin-4-yl)-N-[5-(3-methyl-pyridin-4-ylamino)-pyridin-3-ylmethyl]-3-(4-trifluoromethyl-phenyl)-acrylamide formate] had a 50% inhibitory concentration (IC50) of 47 nM. Against the preceding compound, the IC50 is about 7.5-fold lower.
As for `CN1CCC(N2CC3(CC(N(Cc4ccc(N(C)c5ccncc5)cc4)C(=O)/C=C/c4ccc(C(F)(F)F)cc4)C3)C2)CC1` [Example 73, (E)-N-(4-(methyl(pyridin-4-yl)amino)benzyl)-N-(2-(1-methylpiperidin-4-yl)-2-azaspiro[3.3]heptan-6-yl)-3-(4-(trifluoromethyl)phenyl)acrylamide], 42 nM corresponded to half-maximal inhibition (IC50).
The same measure for `Cc1cc(Nc2ccc(CN(C(=O)/C=C/c3ccc(C(F)(F)F)cc3)C3CCN(Cc4cnc5ccccn45)CC3)cc2)ccn1` [Example 38, (E)-N-(1-Imidazo[1,2-a]pyridin-3-ylmethyl-piperidin-4-yl)-N-[4-(2-methyl-pyridin-4-ylamino)-benzyl]-3-(4-trifluoromethyl-phenyl)-acrylamide]: 100 nM.
Next, `CN1CCC(N2CCC(N(Cc3ccc(N(C)c4ccncc4)cc3)C(=O)/C=C/c3ccc(C(F)(F)F)nc3)CC2)CC1` [Example 183, (E)-N-(1′-Methyl-[1,4′]bipiperidinyl-4-yl)-N-[4-(methyl-pyridin-4-yl-amino)-benzyl]-3-(6-trifluoromethyl-pyridin-3-yl)-acrylamide]: 49 nM; `CN(c1ccncc1)c1ccc(CN(C(=O)/C=C/c2ccc(C(F)(F)F)cc2)[C@@H]2CCN(C3CCCC3)C2)cc1` [Example 113, (E)-N-((R)-1-Cyclopentyl-pyrrolidin-3-yl)-N-[4-(methyl-pyridin-4-yl-amino)-benzyl]-3-(4-trifluoromethyl-phenyl)-acrylamide]: 78 nM.
`Cc1nc(C)c(/C=C/C(=O)N(Cc2ccc(N(C)c3ccncc3)cc2)C2CCN(Cc3ccccc3)CC2)s1` [Example 163, (E)-N-(1-Benzyl-piperidin-4-yl)-3-(2,4-dimethyl-thiazol-5-yl)-N-[4-(methyl-pyridin-4-yl-amino)-benzyl]-acrylamide] showed a concentration for half-maximal inhibition (IC50) of 289 nM. This IC50 lies about 3.7-fold higher than the previous one.
`CCN(CC)Cc1cc(Nc2ccc(CN(C(=O)/C=C/c3ccc(C(F)(F)F)cc3)C3CCN(C)CC3)cc2)ccc1O` [Example 185, (E)-N-[4-(3-Diethylaminomethyl-4-hydroxy-phenylamino)-benzyl]-N-(1-methyl-piperidin-4-yl)-3-(4-trifluoromethyl-phenyl)-acrylamide] had an IC50 of 39 nM.
Compound `CN(c1ccncc1)c1ccc(CN(C(=O)/C=C/c2ccc(C(F)(F)F)cc2)C2CCN(Cc3ncc4ccccn34)CC2)cc1` [Example 20, (E)-N-(1-Imidazo[1,5-a]pyridin-3-ylmethyl-piperidin-4-yl)-N-[4-(methyl-pyridin-4-yl-amino)-benzyl]-3-(4-trifluoromethyl-phenyl)-acrylamide] yielded an IC50 of 256 nM.
The same measure for `COc1ccc2nccc(Nc3ccc(CN(C(=O)/C=C/c4ccc(C(F)(F)F)cc4)C4CCN(C5CCCC5)CC4)cc3)c2c1` [Example 88, (E)-N-(1-Cyclopentyl-piperidin-4-yl)-N-[4-(6-methoxy-quinolin-4-ylamino)-benzyl]-3-(4-trifluoromethyl-phenyl)-acrylamide]: 21 nM; for `CC(C)CCN1CCCC(N(Cc2ccc(N(C)c3ccncc3)cc2)C(=O)/C=C/c2ccc(C(F)(F)F)cc2)CC1` (racemic) [Example 63, (±)-(E)-N-(1-isopentylazepan-4-yl)-N-(4-(methyl(pyridin-4-yl)amino)benzyl)-3-(4-(trifluoromethyl)phenyl)acrylamide]: 85 nM.
`CC(C)CCN1CCC(N(Cc2ccc(N(C)c3ccncc3)cc2)C(=O)/C=C/c2ccc(C(F)(F)F)cc2)CC1` [Example 8, (E)-N-[1-(3-Methyl-butyl)-piperidin-4-yl]-N-[4-(methyl-pyridin-4-yl-amino)-benzyl]-3-(4-trifluoromethyl-phenyl)-acrylamide]: inhibition was half-maximal at 43 nM (IC50).
In turn, `CC(C)N1CCC(N(Cc2cccc(Nc3ccncc3F)c2)C(=O)/C=C/c2ccc(C(F)(F)F)cc2)CC1` [Example 124, (E)-N-[3-(3-Fluoro-pyridin-4-ylamino)-benzyl]-N-(1-isopropyl-piperidin-4-yl)-3-(4-trifluoromethyl-phenyl)-acrylamide formate] came in with an IC50 of 303 nM.
As for `Cc1cc(Nc2ccc(CN(C(=O)/C=C/c3ccc(C(F)(F)F)cc3)C3CCN(Cc4nc(C)oc4C)CC3)cc2)ccn1` [Example 32, (E)-N-[1-(2,5-Dimethyl-oxazol-4-ylmethyl)-piperidin-4-yl]-N-[4-(2-methyl-pyridin-4-ylamino)-benzyl]-3-(4-trifluoromethyl-phenyl)-acrylamide], the IC50 was 89 nM.
Consider `CN1CCC(N2CCC3(CCC(N(Cc4ccc(N(C)c5ccncc5)cc4)C(=O)/C=C/c4ccc(C(F)(F)F)cc4)CC3)CC2)CC1` [Example 65, (E)-N-(4-(methyl(pyridin-4-yl)amino)benzyl)-N-(3-(1-methylpiperidin-4-yl)-3-azaspiro[5.5]undecan-9-yl)-3-(4-(trifluoromethyl)phenyl)acrylamide], for which the IC50 came out at 21 nM.

(Values after patent US9637473B2, “Acrylamide derivatives as antimalarial agents” (priority 2013, dated 2017).)
